In patent publication US20260048081A1, “COMBINED TREATMENT COMPOSITION FOR TUMOR TREATMENT AND COMBINED TREATMENT METHOD” (ADVACCINE (SUZHOU) BIOPHARMACEUTICALS CO., LTD., priority 2022, published 2026):

Legend:
[1] = tested on: 4T1 breast cancer cell; assay type: in vivo; settings: 2 μg/kg cisplatin (CDDP alone printed 2 g/kg), 50 μg/mouse CpG, 50 μg/mouse R848
[2] = tested on: B16-F10 mouse melanoma; assay: B16-F10 mouse melanoma model, small-volume tumors (Example 9); assay type: in vivo; settings: 4 mg/kg cisplatin, intraperitoneal injection, days 7, 14, 21
Procedure: This example further explored the effect of cisplatin combined with CR108 adjuvant on mouse melanoma. A B16-F10 mouse melanoma model was constructed by subcutaneously inoculating tumor cells on the right side of the back of the mice proximal to the hip position at 3×10^5 cells/mouse, […]
Specific mouse administration groups were as follows: (1) a PBS negative control group, (2) CDDP^Lo (2 μg/kg cisplatin), (3) CR108 (50 μg/mouse CpG1018 and 50 μg/mouse water-soluble R848), (4) CDDP^Lo+CR108 (2 μg/kg cisplatin, 50 μg/mouse CpG1018 and 50 μg/mouse water-soluble R848), (5) CDDP^Lo+C′ (2 μg/kg cisplatin and 50 μg/mouse CpG1018), (6) CDDP^Lo+R (2 μg/kg cisplatin and 50 μg/mouse water-soluble R848), and (7) CDDP^Hi (4 mg/kg cisplatin, regular cisplatin chemotherapeutic drug dose). Except for Group (7), which received a high dose of cisplatin by intraperitoneal injection, all other groups were administered by subcutaneous injection near the tumor. […]
On day 4 after the last administration, mice were sacrificed, tumor tissues of the mice were separated and weighed using an analytical balance; the weights were recorded, and the tumors were photographed for recording. […]

[3] = tested on: B16-F10 mouse melanoma; assay: Large-volume B16-F10 melanoma model, intratumoral injection: tumor volume and survival (Examples 10-13); assay type: in vivo
Procedure: To establish a B16-F10 mouse melanoma model, the tumor cells were inoculated at 3×10^5 cells/mouse. Once the tumors reached an appropriate size with an average of about 200 mm^3, suitable mice were selected based on the tumor size and body weight and given drugs according to the following groups. […] Specific groups were as follows: Group G1, normal saline (NS) control group: mice were treated once a week; Group G2: mice received an intratumoral injection of CDDP, followed by an intratumoral injection of CR108 two days later, once a week; Group G3: for each administration cycle, mice first received an intratumoral injection of CDDP, followed by an intratumoral injection of CR108 two days later, which was repeated every other day, with four administrations constituting one cycle, and after a one-week interruption, the next administration cycle was repeated; and Group G4: after CDDP and CR108 were mixed, mice received an intratumoral injection of the mixture, twice a week. After the administration was completed according to the flowchart, the administration was stopped, and the tumor size and physiological states of the mice were monitored during this period. When the tumor volume of each mouse exceeded 2000 mm^3 for the first time or the body weight of the animal was less than 80% of the body weight before the first administration, it was considered an ethical death, and the animal was euthanized. The remaining mice continued to be observed.
Experimental groups were as follows: (1) a normal saline control group, with the same administration protocol as that in Group G1 of Example 10; (2) CDDP^Hi+CR108 (at a cisplatin dose of 0.4 mg/kg), with the same administration protocol as that in Group G2 of Example 10 (qw); (3) CDDP^Lo+CR108 (at a cisplatin dose of 2 μg/kg), with the same administration protocol as that in Group G3 of Example 10 (qod); and (4) CDDP^Hi+CR108 (0.4 mg/kg cisplatin), with the same administration protocol as that in Group G3 of Example 10 (qod); the dose of CR108 used in each group was 50 μg/mouse CpG1018 and 50 μg/mouse water-soluble R848. […]

[4] = tested on: BALB/c mouse spleen cells; assay: In vitro stimulation of mouse spleen cells to secrete TNF-α; assay type: cell-based; settings: FIG. 9; stimulated 18-20 h; research-grade versus pharmaceutical grade reagent
Procedure: Drug preparation: The preparation and use of the research-grade reagents CpG1826 and R848 (water soluble) were the same as those in Example 1; the pharmaceutical agent R848 (lipid soluble) was dissolved in DMSO to prepare a 10 mg/mL stock solution, 0.1 mL of the stock solution was taken for each administration, the volume was brought to 1 mL, and a 1 mg/mL solution was prepared; CpG1018 was prepared at 1 mg/ml with PBS before each administration.
The spleens of three blank BABL/c mice were added to a 30 mm cell culture dish, 1640 medium was added, and the resulting mixture was ground, filtered through a copper screen, and centrifuged at 1500 rpm for 3 min. The supernatant was discarded, 2 mL of a red blood cell lysis buffer was added, and the samples were left to stand for 2 min, terminated with 4 mL of 1640+10% FBS, and centrifuged at 1500 rpm for 3 min. The supernatant was discarded, the samples were resuspended in 1640+10% FBS, and the cells were counted. The cells were plated in a 96-well cell culture plate at 2×10^6 cells/well, with 200 μL of culture medium per well. […] After the cells were stimulated for 18-20 h, the cell culture supernatant was collected, and the expression of cytokines in each 10^6 mouse spleen cells was determined by using a mouse TNF-α detection kit (purchased from NeoBioscience Technology Co., Ltd., Catalog No. EMC102a.96) according to the instructions.

Compound	tumor volume growth curve ([1]; Example 7, FIG. 12, 6 mice per group)	tumor weight ([1]; Example 7, FIG. 13, end of the experiment)	mouse death during the administration period [2]	tumor volume compared with the normal saline control group ([3]; Example 12, FIG. 31, day 28, CDDP 4 mg/kg once a week, CR108 G3 protocol, CDDP+CR108 0.4 mg/kg cisplatin G3 protocol)	day on which all mice were euthanized due to tumor volume exceeding 2000 mm^3 ([3]; Example 12, 4 mg/kg CDDP once a week)	median survival time ([3]; Example 12, CDDP 4 mg/kg once a week, CR108 alone G3 protocol, CDDP+CR108 0.4 mg/kg CDDP, not counted on day 45, saline control 26 days)	levels of TNF-α cytokines produced from mouse spleen cells stimulated in vitro [4]
[NH2][Pt]([NH2])([Cl])[Cl] [CDDP, cisplatin]	grew rapidly	too large and overweight	One mouse	significantly lower than that in the normal saline control group	36 days	36 days	–
CCOCc1nc2c(N)nc3ccccc3c2n1CC(C)(C)O [R848 (water soluble)]	–	–	–	–	–	–	comparable
